Experiments:
[1] = tested on: organic cation transporter 2 (OCT2); conditions: read-out: IC50 inhibition of organic cation transporter 2 (OCT2); cited from earlier work
HBV Production = assay: microbe, parasite or virus in culture; conditions: Hepatitis B virus
HCV 1b Replicon = assay: Anti-HCV activity, HCV 1b replicon; conditions: Hepatitis C virus, Huh-7
HIV-1 BaL = assay: Antiviral assay in primary CD4+ T lymphocytes (p24 ELISA); conditions: Human immunodeficiency virus 1, BAL
Source text: Freshly isolated human peripheral blood mononuclear cells (PBMCs) were obtained from healthy volunteers (supplied by AllCells, Inc., Alameda, CA). Blood donors were negative for HIV-1, hepatitis B, and hepatitis C viral infections. CD4^+ T lymphocytes were isolated by negative selection using a magnetically labeled antibody cocktail ([sequence] Technologies Inc., Vancouver, Canada) and cultured in RPMI cell culture media (Life Technologies, Grand Island, NY) supplemented with 10% FBS. CD4^+ T cells were activated for 48 h at 37°C by addition of 1 μg/ml phytohemagglutinin (PHA; Sigma, St. Louis, MO) and 5 ng/ml interleukin-2 (IL-2; Roche Diagnostics, Indianapolis, IN).
A 3-fold serial dilution of test compounds in RPMI medium was added to triplicate wells and incubated at 37°C for 5 days. Human monocytes were seeded on 96-well plates at a density of 3 × 10^5 cells per well, differentiated into adherent macrophages, and then infected with HIV-1 BaL virus in 50 μl RPMI for 3 h at 37°C. […] The supernatants derived from the CD4^+ T-cell and macrophage cultures were harvested 6 and 12 days postinfection, respectively, and the amount of HIV present was quantified by p24 enzyme-linked immunosorbent assay (ELISA) (PerkinElmer, Waltham, MA).

HIV-1 clinical isolates = assay: Antiviral assay against HIV-1 clinical isolates in fresh human PBMCs (RT endpoint)
HIV-1 IIIb [2] = assay: Antiviral assay in MT-4 cells; format: cell-based; conditions: Human immunodeficiency virus 1, MT4, 120 h, 5 days
Method: For the antiviral assay utilizing MT-2 and MT-4 cells, 50 μl of a 2× test concentration of 5-fold serially diluted compound in culture medium with 10% FBS was added to each well of a 96-well plate (9 concentrations) in triplicate. MT-2 and MT-4 cells were infected with HIV-1 IIIb at a multiplicity of infection (MOI) of 0.01 for 3 h. Fifty microliters of infected cell suspension in culture medium with 10% FBS (∼1.5 × 10^4 cells) then was added to each well containing 50 μl of diluted compound. The plates were then incubated at 37°C for 5 days. After 5 days of incubation, 100 μl of CellTiter-Glo reagent (Promega Biosciences, Inc., Madison, WI) was added to each well containing MT-2 or MT-4 cells. Cell lysis was carried out by incubation at room temperature for 10 min and chemiluminescence was read. For compound cytotoxicity assessment, the protocol was identical except that uninfected cells were used and compounds were serially diluted 3-fold.

HIV-1 IIIb [3] = tested on: HIV-1 IIIb
Method: Each compound series was prepared several times independently in quadruplicate to capture the variations in Hill slope associated with preparation of compound serial dilutions. The assay was performed in a 384-well format. MT-4 cells were infected in bulk at the same MOI as that described above, and the plates were developed with CellTiter-Glo reagent 5 days postinfection.

HIV-1 IIIb [4] = assay: HIV breakthrough selection in MT-2 cells; conditions: MT-2, HIV-1 IIIb; FTC 4× EC95, EVG 5× EC95, BIC and DTG 2.5× and 5× EC95; up to day 32
in vitro = conditions: human, 6 days
Source text: Freshly isolated human peripheral blood mononuclear cells (PBMCs) were obtained from healthy volunteers (supplied by AllCells, Inc., Alameda, CA). Blood donors were negative for HIV-1, hepatitis B, and hepatitis C viral infections. CD4^+ T lymphocytes were isolated by negative selection using a magnetically labeled antibody cocktail ([sequence] Technologies Inc., Vancouver, Canada) and cultured in RPMI cell culture media (Life Technologies, Grand Island, NY) supplemented with 10% FBS. CD4^+ T cells were activated for 48 h at 37°C by addition of 1 μg/ml phytohemagglutinin (PHA; Sigma, St. Louis, MO) and 5 ng/ml interleukin-2 (IL-2; Roche Diagnostics, Indianapolis, IN). […] Human PBMCs were used for cytotoxicity assays after culturing for 48 h in either complete RPMI medium alone (resting conditions) or RPMI containing 1 μg/ml PHA and 5 ng/ml IL-2 (activated conditions).

[5] = via inhibition of OCT2 in proximal tubule; cited from earlier work
RSV strain A2 = assay: microbe, parasite or virus in culture; format: cell-based, respiratory syncytial virus; conditions: human respiratory syncytial virus, HEp-2
[6] = tested on: HIV-1 patient-derived isolates with INSTI resistance mutations; assay: PhenoSense IN assay, 47 patient-derived isolates; format: cell-based
Method: Forty-seven resistance test vectors containing patient-derived IN coding regions were constructed using standard Monogram Biosciences protocols. […] The fold change from the NL4-3 wild-type reference vector values was determined. Statistical significance was determined using the Student two-tailed t test.

C[C@@H]1CCO[C@H]2Cn3cc(C(=O)NCc4ccc(F)cc4F)c(=O)c(O)c3C(=O)N12 [DTG, Dolutegravir]
IC50 [1]: 1930 nM
EC50 (HBV Production): > 50000 nM
EC50 (HCV 1b Replicon): > 44000 nM
EC50 (HIV-1 BaL): 1 ± 0.3 nM
EC50 (HIV-1 clinical isolates; Human immunodeficiency virus 1, BAL, PBMC, HIV-1 subtype B isolate BaL, human PBMCs): 0.32 ± 0.11 nM
EC50 (HIV-1 clinical isolates; Human immunodeficiency virus 1, PBMC, HIV-1 subtype A isolate 92RW016, human PBMCs): 0.34 ± 0.09 nM
EC50 (HIV-1 clinical isolates; Human immunodeficiency virus 1, PBMC, HIV-1 subtype A isolate 92UG037, human PBMCs): 0.66 ± 0.05 nM
EC50 (HIV-1 clinical isolates; Human immunodeficiency virus 1, PBMC, HIV-1 subtype B isolate 89BZ_167, human PBMCs): 1.4 ± 0.4 nM
EC50 (HIV-1 clinical isolates; Human immunodeficiency virus 1, PBMC, HIV-1 subtype B isolate 91US001, human PBMCs): 0.8 ± 0.48 nM
EC50 (HIV-1 clinical isolates; Human immunodeficiency virus 1, PBMC, HIV-1 subtype B isolate 91US004, human PBMCs): 1 ± 0.4 nM
EC50 (HIV-1 clinical isolates; Human immunodeficiency virus 1, PBMC, HIV-1 subtype C isolate 93IN905, human PBMCs): 0.17 ± 0.03 nM
EC50 (HIV-1 clinical isolates; Human immunodeficiency virus 1, PBMC, HIV-1 subtype C isolate 98US_MSC5016, human PBMCs): 0.75 ± 0.09 nM
EC50 (HIV-1 clinical isolates; Human immunodeficiency virus 1, PBMC, HIV-1 subtype D isolate 98UG_57128, human PBMCs): 0.32 ± 0.48 nM
EC50 (HIV-1 clinical isolates; Human immunodeficiency virus 1, PBMC, HIV-1 subtype E isolate 96TH_M02138, human PBMCs): 0.11 ± 0.01 nM
EC50 (HIV-1 clinical isolates; Human immunodeficiency virus 1, PBMC, HIV-1 subtype E isolate 96TH_NI1046, human PBMCs): 0.25 ± 0.08 nM
EC50 (HIV-1 clinical isolates; Human immunodeficiency virus 1, PBMC, HIV-1 subtype F isolate 93BR020, human PBMCs): 0.4 ± 0.19 nM
EC50 (HIV-1 IIIb [2]): 1.5 ± 0.3 nM
PAEC95 (protein binding-adjusted EC95) (HIV-1 IIIb [3]; EC95 in MT-4 with human serum shift): 204 nM
EC95 (HIV-1 IIIb [3]; MT-4 cells, calculated using Hill slope): 7.4 nM
day postinfection of HIV-1 breakthrough (HIV-1 IIIb [4]): no virus breakthrough was observed
CC50 (in vitro; CC50, Activated PBMCs (IL-2/PHA 2 days)): 23900 nM
CC50 (in vitro; CC50, Resting PBMCs): 30600 nM
increase of human serum creatinine levels [5]: about 10%
EC50 (RSV strain A2): > 50000 nM

Cc1nnc(C(=O)NC(C)(C)c2nc(C(=O)NCc3ccc(F)cc3)c(O)c(=O)n2C)o1 [RAL, raltegravir]
% of Isolates (Fold-Change vs. WT) (2.5 to <5) ([6]; 47 patient-derived isolates): 4%
% of Isolates (Fold-Change vs. WT) (5 to <10) ([6]; 47 patient-derived isolates): 4%
% of Isolates (Fold-Change vs. WT) (≤2.5) ([6]; 47 patient-derived isolates): 2%
% of Isolates (Fold-Change vs. WT) (≥10) ([6]; 47 patient-derived isolates): 89%
Fold-Change vs. WT Mean ([6]; 47 patient-derived isolates): > 100 fold change
Fold-Change vs. WT Median ([6]; 47 patient-derived isolates): > 143 fold change
Susceptibility (Fold-change vs. WT) ([6]; isolate entry 1: L74M,T97A): 8.48 fold-change
Susceptibility (Fold-change vs. WT) ([6]; isolate entry 2: L68V,Y143C): 4.06 fold-change
Susceptibility (Fold-change vs. WT) ([6]; isolate entry 3: L68L/V,L74M,Y143R): > 143 fold-change
Susceptibility (Fold-change vs. WT) ([6]; isolate entry 4: T97A): 1.78 fold-change
Susceptibility (Fold-change vs. WT) ([6]; isolate entry 5: T97A,F121Y): 112 fold-change
Susceptibility (Fold-change vs. WT) ([6]; isolate entry 6: T97A,Y143R): > 143 fold-change
Susceptibility (Fold-change vs. WT) ([6]; isolate entry 7: F121Y): 12 fold-change
Susceptibility (Fold-change vs. WT) ([6]; isolate entry 8: L74M,N155H): 89 fold-change
Susceptibility (Fold-change vs. WT) ([6]; isolate entry 9: T97A,N155H): 53 fold-change
Susceptibility (Fold-change vs. WT) ([6]; isolate entry 10: T97A,Y143C): > 143 fold-change
Susceptibility (Fold-change vs. WT) ([6]; isolate entry 11: E92Q,E157E/Q): 4.8 fold-change
Susceptibility (Fold-change vs. WT) ([6]; isolate entry 12: E92Q): 18 fold-change
Susceptibility (Fold-change vs. WT) ([6]; isolate entry 13: N155H,E157E/Q): 19 fold-change
Susceptibility (Fold-change vs. WT) ([6]; isolate entry 14: E92Q): 6.7 fold-change
Susceptibility (Fold-change vs. WT) ([6]; isolate entry 15: Y143R): 22 fold-change
Susceptibility (Fold-change vs. WT) ([6]; isolate entry 16: Y143R): 16 fold-change
Susceptibility (Fold-change vs. WT) ([6]; isolate entry 17: N155H): 107 fold-change
Susceptibility (Fold-change vs. WT) ([6]; isolate entry 18: Y143C): 14 fold-change
Susceptibility (Fold-change vs. WT) ([6]; isolate entry 19: T97A,Y143C): > 143 fold-change
Susceptibility (Fold-change vs. WT) ([6]; isolate entry 20: Q148R,E138A): 43 fold-change
Susceptibility (Fold-change vs. WT) ([6]; isolate entry 21: N155H,G163R): 15 fold-change
Susceptibility (Fold-change vs. WT) ([6]; isolate entry 22: E92Q,N155H): > 143 fold-change
Susceptibility (Fold-change vs. WT) ([6]; isolate entry 23: E138K,Q148R): 54 fold-change
Susceptibility (Fold-change vs. WT) ([6]; isolate entry 24: G140S,Q148H): > 143 fold-change
Susceptibility (Fold-change vs. WT) ([6]; isolate entry 25: E92Q,N155H,G163R): > 143 fold-change
Susceptibility (Fold-change vs. WT) ([6]; isolate entry 26: G140A,Q148R): 88 fold-change
Susceptibility (Fold-change vs. WT) ([6]; isolate entry 27: G140S,Q148H): > 143 fold-change
Susceptibility (Fold-change vs. WT) ([6]; isolate entry 28: G140S,Q148H): > 143 fold-change
Susceptibility (Fold-change vs. WT) ([6]; isolate entry 29: G140S, Q148H): > 143 fold-change
Susceptibility (Fold-change vs. WT) ([6]; isolate entry 30: E138K,G140S,Q148H): > 143 fold-change
Susceptibility (Fold-change vs. WT) ([6]; isolate entry 31: G140S,Q148H): > 143 fold-change
Susceptibility (Fold-change vs. WT) ([6]; isolate entry 32: G140S,Q148H, G163K): > 143 fold-change
Susceptibility (Fold-change vs. WT) ([6]; isolate entry 33: G140S,Q148H): > 143 fold-change
Susceptibility (Fold-change vs. WT) ([6]; isolate entry 34: E138K,G140S,Q148H): > 143 fold-change
Susceptibility (Fold-change vs. WT) ([6]; isolate entry 35: E138K G140S Q148H): > 114 fold-change
Susceptibility (Fold-change vs. WT) ([6]; isolate entry 36: G140S,Q148H): > 143 fold-change
Susceptibility (Fold-change vs. WT) ([6]; isolate entry 37: G140S,Q148R): > 143 fold-change
Susceptibility (Fold-change vs. WT) ([6]; isolate entry 38: G140S,Q148H): > 143 fold-change
Susceptibility (Fold-change vs. WT) ([6]; isolate entry 39: G140S,Q148H): > 143 fold-change
Susceptibility (Fold-change vs. WT) ([6]; isolate entry 40: T97A,G140S,Q148H): > 143 fold-change
Susceptibility (Fold-change vs. WT) ([6]; isolate entry 41: E138K,G140C,Q148R): > 143 fold-change
Susceptibility (Fold-change vs. WT) ([6]; isolate entry 42: L74L/M,G140A,Q148R): > 143 fold-change
Susceptibility (Fold-change vs. WT) ([6]; isolate entry 43: G140S,Q148R): > 143 fold-change
Susceptibility (Fold-change vs. WT) ([6]; isolate entry 44: G140S,Q148H,E138A): > 143 fold-change
Susceptibility (Fold-change vs. WT) ([6]; isolate entry 45: T97A,G140S,Q148H): > 143 fold-change
Susceptibility (Fold-change vs. WT) ([6]; isolate entry 46: L74M,G140C,Q148R): > 143 fold-change
Susceptibility (Fold-change vs. WT) ([6]; isolate entry 47: E138K,G140A,Q148K): > 143 fold-change

Reference: publication PMC5118987 (Antimicrobial Agents and Chemotherapy, 2016)
